According to PMC7413254 (Nature Communications, 2020):
Where two headings read alike, the source gives them in different places.

Key:
PfCRT [1] = experiment: Influx of VF-6 via PfCRT into the oocyte, solutes tested as potential co-substrates; format: cell-based, Plasmodium falciparum; set-up: key: X: Compounds that have been tested as potential co-substrates but are not required for influx of VF-6 via PfCRT into the oocyte; settings: X marks the solute
non-expressing oocytes [2] = experiment: cells; format: cell-based, Xenopus laevis; settings: Xenopus laevis, total [3H]CQ transport; for inhibition at 500 µM: [test solute] = 0.5 mM; for inhibition at 1000 µM: [test solute] = 1 mM; for inhibition at 2000 µM: [test solute] = 2 mM
Summary of the method: (§1)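 PfCRT-expressing and control oocytes: ND96 pH 5.5 → 1.5 h at 27.5 °C → ice-cold ND96 wash → 10% SDS lysis → scintillation count.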

PfCRT^3D7 [3] = target: T1, PfCRT^3D7 (Plasmodium falciparum, UniProt Q8IBZ9); experiment: cell-based; format: cell-based; settings: total [3H]CQ transport; for inhibition at 500 µM: [test solute] = 0.5 mM; for inhibition at 1000 µM: [test solute] = 1 mM; for inhibition at 2000 µM: [test solute] = 2 mM
Summary of the method: as §1

non-expressing oocytes [4] = format: cell-based, Xenopus laevis; settings: total [3H]CQ transport; for Uptake of [3H]CQ (% non-expressing oocyte control), trans-stimulation: non-expressing oocytes, normalised to the oocyte type control; for Uptake of [3H]CQ (% PfCRTDd2 control), trans-stimulation, non-expressing oocytes: mean ± SEM, SEM
Summary of the method: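 Oocytes (ten per treatment, ≥4 independent frogs/days) were preloaded by injecting VF-6 in 25 nL ND96 at pH 5.0, 5.5, 6.0 or 7.0, or Na^+-free choline buffer, then uptake run 1.5 h, 27.5 °C, ND96 pH 5.5 by default. Internal concentrations assumed ~400 nL oocyte volume.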

PfCRT [5] = experiment: Test of solutes as potential co-substrates for influx of VF-6 via PfCRT into the oocyte; format: cell-based, Plasmodium falciparum; set-up: key: X: Compounds that have been tested as potential co-substrates but are not required for influx of VF-6 via PfCRT into the oocyte; settings: X = tested
PfCRT^Ecu1110 [6] = target: T2, PfCRT^Ecu1110 (Plasmodium falciparum, UniProt Q9N623, A220S/I356L/K76T/N326D); experiment: [3H]CQ uptake into Xenopus oocytes, cis-inhibition by unlabelled solute; format: cell-based
Summary of the method: as §1

PfCRT^Dd2 [7] = target: T3, PfCRT^Dd2 (Plasmodium falciparum, UniProt Q9N623, A220S/I356T/K76T/M74I/N326S/N75E/Q271E/R371I); experiment: as above; format: cell-based
Summary of the method: as §1

PfCRT^3D7 [8] = target: T1, PfCRT^3D7; experiment: cell-based; format: cell-based
Summary of the method: (§2)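 Transport measured in Xenopus oocytes expressing the transporters, 1.5 h at 27.5 °C in ND96 pH 5.5 unless noted. For trans-stimulation, VF-6 injected in 25 nL ND96 at pH 5.0–7.0 or Na^+-free (choline) buffer; intracellular levels based on ~400 nL oocyte volume. Ten oocytes per treatment, ≥4 experiments.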

PfCRT^Ecu1110 [9] = target: T2, PfCRT^Ecu1110; experiment: cell-based; format: cell-based; settings: […]
Summary of the method: as §2

PfCRT^Dd2 [10] = target: T3, PfCRT^Dd2; experiment: cell-based; format: cell-based; settings: […]; for activity at 45000 µM: [test solute]i = 45 mM (30 mM for some solutes due to solubility)
Summary of the method: as §2

PfNT1 = target: T4, PfNT1 (Plasmodium falciparum, UniProt Q8IDM6); experiment: cell-based; format: cell-based; settings: for activity at 5000 µM: total [3H]CQ transport
T4 construct: expressed in transfected cells; host or cells: Xenopus laevis oocytes (stage V-VI), cRNA-injected
Summary of the method: as §2

[11] = Oocyte, mean ± SEM, SEM, read-out: Uptake of [3H]CQ (% PfCRTDd2 control), cis-inhibition, non-expressing oocytes
[12] = non-expressing oocytes, normalised to the oocyte type control, read-out: Uptake of [3H]CQ (% non-expressing oocyte control), cis-inhibition
[13] = PfCRT3D7 oocytes, normalised to the oocyte type control, read-out: Uptake of [3H]CQ (% PfCRT3D7 control), cis-inhibition
[14] = mean ± SEM, SEM, read-out: Uptake of [3H]CQ (% PfCRTDd2 control), cis-inhibition, PfCRT3D7
[15] = read-out: PfCRT-mediated [3H]CQ transport, cis-inhibition (% PfCRTEcu1110 control)
[16] = read-out: Uptake of [3H]CQ (% PfCRTDd2 control), cis-inhibition, PfCRTEcu1110, SEM
[17] = read-out: Uptake of [3H]CQ (% PfCRTEcu1110 control), cis-inhibition
[18] = read-out: [3H]CQ transport (% PfCRTEcu1110 control), cis-inhibition, PfCRTEcu1110, SEM
[19] = read-out: PfCRT-mediated [3H]CQ transport, cis-inhibition (% PfCRTDd2 control)
[20] = read-out: Uptake of [3H]CQ (% PfCRTDd2 control), cis-inhibition, PfCRTDd2, SEM

T2 sequence (Q9N623 whole entry A220S/I356L/K76T/N326D): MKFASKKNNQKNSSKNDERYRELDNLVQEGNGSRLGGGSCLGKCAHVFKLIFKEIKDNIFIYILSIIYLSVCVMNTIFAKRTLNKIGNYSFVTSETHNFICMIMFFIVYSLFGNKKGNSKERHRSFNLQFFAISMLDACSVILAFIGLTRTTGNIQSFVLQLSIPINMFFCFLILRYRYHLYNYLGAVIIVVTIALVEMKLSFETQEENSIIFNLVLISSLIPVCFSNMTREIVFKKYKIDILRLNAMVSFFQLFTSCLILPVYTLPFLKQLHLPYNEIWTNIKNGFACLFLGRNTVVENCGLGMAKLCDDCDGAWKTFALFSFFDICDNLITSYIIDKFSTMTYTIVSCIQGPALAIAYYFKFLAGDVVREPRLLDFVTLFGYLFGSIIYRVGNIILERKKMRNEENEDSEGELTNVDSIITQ
T4 sequence (Q8IDM6 whole entry): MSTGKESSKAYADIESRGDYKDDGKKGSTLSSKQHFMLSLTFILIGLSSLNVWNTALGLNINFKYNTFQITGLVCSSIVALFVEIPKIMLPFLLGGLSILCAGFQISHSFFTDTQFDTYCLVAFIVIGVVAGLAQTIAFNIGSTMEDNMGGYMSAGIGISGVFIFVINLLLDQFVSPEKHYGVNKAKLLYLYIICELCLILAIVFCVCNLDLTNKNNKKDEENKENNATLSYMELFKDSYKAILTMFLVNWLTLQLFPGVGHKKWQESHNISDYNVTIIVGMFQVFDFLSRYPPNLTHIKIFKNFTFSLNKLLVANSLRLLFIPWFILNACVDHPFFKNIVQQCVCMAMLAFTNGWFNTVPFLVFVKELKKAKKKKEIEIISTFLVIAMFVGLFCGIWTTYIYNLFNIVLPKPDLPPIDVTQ
T1 sequence (Q8IBZ9 59-398): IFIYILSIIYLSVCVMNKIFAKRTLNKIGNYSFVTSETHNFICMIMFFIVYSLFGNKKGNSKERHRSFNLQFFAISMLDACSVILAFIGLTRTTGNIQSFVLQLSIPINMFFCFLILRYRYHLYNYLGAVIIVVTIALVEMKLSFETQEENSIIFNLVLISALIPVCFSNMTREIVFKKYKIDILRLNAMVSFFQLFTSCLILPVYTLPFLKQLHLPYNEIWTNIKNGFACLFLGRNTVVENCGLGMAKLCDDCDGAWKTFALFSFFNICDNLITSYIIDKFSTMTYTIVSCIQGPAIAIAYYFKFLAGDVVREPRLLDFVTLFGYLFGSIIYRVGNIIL
T3 sequence (Q9N623 whole entry A220S/I356T/K76T/M74I/N326S/N75E/Q271E/R371I): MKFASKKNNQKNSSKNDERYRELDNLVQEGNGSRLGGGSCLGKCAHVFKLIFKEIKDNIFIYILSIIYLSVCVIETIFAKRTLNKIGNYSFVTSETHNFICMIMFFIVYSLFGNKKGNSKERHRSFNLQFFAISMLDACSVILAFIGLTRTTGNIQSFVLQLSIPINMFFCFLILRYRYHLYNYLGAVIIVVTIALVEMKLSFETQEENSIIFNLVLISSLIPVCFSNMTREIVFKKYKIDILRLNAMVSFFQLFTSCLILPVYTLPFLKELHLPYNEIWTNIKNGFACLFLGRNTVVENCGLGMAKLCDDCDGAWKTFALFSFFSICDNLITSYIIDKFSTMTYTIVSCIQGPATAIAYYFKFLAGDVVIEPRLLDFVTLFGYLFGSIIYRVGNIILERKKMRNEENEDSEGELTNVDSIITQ

CC[C@H](C)[C@H](N)C(=O)O [L-isoleucine]
Compounds that have been tested as potential co-substrates but are not required for influx of VF-6 via PfCRT into the oocyte (PfCRT [1]): X | inhibition at 500 µM (non-expressing oocytes [2]; [11]): 2.7 ± 0.08% | inhibition at 1000 µM (non-expressing oocytes [2]; [11]): 3.3 ± 0.03% | inhibition at 2000 µM (non-expressing oocytes [2]; [11]): 2.4 ± 0.07% | inhibition at 500 µM (non-expressing oocytes [2]; [12]): 94 ± 7.5% | inhibition at 1000 µM (non-expressing oocytes [2]; [12]): 100 ± 4.5% | inhibition at 2000 µM (non-expressing oocytes [2]; [12]): 101 ± 3.2% | inhibition at 500 µM (PfCRT^3D7 [3]; [13]): 99 ± 4.7% | inhibition at 1000 µM (PfCRT^3D7 [3]; [13]): 98 ± 5.7% | inhibition at 2000 µM (PfCRT^3D7 [3]; [13]): 102 ± 4.7% | inhibition at 500 µM (PfCRT^3D7 [3]; [14]): 3.1 ± 0.07% | inhibition at 1000 µM (PfCRT^3D7 [3]; [14]): 2.8 ± 0.04% | inhibition at 2000 µM (PfCRT^3D7 [3]; [14]): 2.8 ± 0.02% | Uptake of [3H]CQ (% non-expressing oocyte control), trans-stimulation (non-expressing oocytes [4]; [test solute]i = 5 mM): 97 ± 1.3 % non-expressing oocyte control | Uptake of [3H]CQ (% non-expressing oocyte control), trans-stimulation (non-expressing oocytes [4]; [test solute]i = 45 mM (30 mM for some solutes due to solubility)): 100 ± 2.7 % non-expressing oocyte control | Uptake of [3H]CQ (% PfCRTDd2 control), trans-stimulation, non-expressing oocytes (non-expressing oocytes [4]; [test solute]i = 5 mM (intracellular)): 3.2 ± 0.06 % PfCRTDd2 control | Uptake of [3H]CQ (% PfCRTDd2 control), trans-stimulation, non-expressing oocytes (non-expressing oocytes [4]; [test solute]i = 45 mM (intracellular; 30 mM for some solutes due to solubility)): 2.5 ± 0.05 % PfCRTDd2 control | Tested as potential co-substrate but not required for influx of VF-6 via PfCRT into the oocyte (PfCRT [5]): X | inhibition at 500 µM (PfCRT^Ecu1110 [6]; [15]): 93 ± 5.9% | inhibition at 1000 µM (PfCRT^Ecu1110 [6]; [15]): 98 ± 4.1% | inhibition at 2000 µM (PfCRT^Ecu1110 [6]; [15]): 98 ± 5.2% | inhibition at 500 µM (PfCRT^Ecu1110 [6]; [16]): 31 ± 1.7% | inhibition at 1000 µM (PfCRT^Ecu1110 [6]; [16]): 33 ± 1.8% | inhibition at 2000 µM (PfCRT^Ecu1110 [6]; [16]): 33 ± 1.5% | inhibition at 500 µM (PfCRT^Ecu1110 [6]; [17]): 96 ± 6.9% | inhibition at 1000 µM (PfCRT^Ecu1110 [6]; [17]): 100 ± 6.9% | inhibition at 2000 µM (PfCRT^Ecu1110 [6]; [17]): 101 ± 9.5% | inhibition at 500 µM (PfCRT^Ecu1110 [6]; [18]): 28 ± 0.3% | inhibition at 1000 µM (PfCRT^Ecu1110 [6]; [18]): 30 ± 0.6% | inhibition at 2000 µM (PfCRT^Ecu1110 [6]; [18]): 30 ± 0.5% | inhibition at 500 µM (PfCRT^Dd2 [7]; [19]): 95 ± 5.1% | inhibition at 2000 µM (PfCRT^Dd2 [7]; [19]): 96 ± 3.7% | inhibition at 500 µM (PfCRT^Dd2 [7]; [20]): 97 ± 4.9% | inhibition at 1000 µM (PfCRT^Dd2 [7]; [20]): 100 ± 6.5% | inhibition at 2000 µM (PfCRT^Dd2 [7]; [20]): 98 ± 6.2% | activity at 5000 µM (PfCRT^3D7 [8]; PfCRT3D7 oocytes, [test solute]i = 5 mM, total [3H]CQ transport, normalised to the oocyte type control, read-out: Uptake of [3H]CQ (% PfCRT3D7 control), trans-stimulation): 100 ± 3.6% | [3H]CQ transport (% PfCRT3D7 control), trans-stimulation, PfCRT3D7 (PfCRT^3D7 [8]; SEM): 0.3 ± 0.02 % PfCRT3D7 control | activity at 5000 µM (PfCRT^3D7 [8]; [test solute]i = 5 mM (intracellular), PfCRT3D7 oocytes, normalised to oocyte type control, read-out: PfCRT-mediated [3H]CQ transport, trans-stimulation (% PfCRT3D7 control)): 98 ± 4.1% | activity at 45000 µM (PfCRT^3D7 [8]; SEM, read-out: Uptake of [3H]CQ (% PfCRTDd2 control), trans-stimulation, PfCRT3D7): 3.3 ± 0.01% | activity at 45000 µM (PfCRT^3D7 [8]; read-out: PfCRT-mediated [3H]CQ transport, trans-stimulation (% PfCRT3D7 control)): 96 ± 3.5% | activity at 45000 µM (PfCRT^3D7 [8]; read-out: Uptake of [3H]CQ (% PfCRT3D7 control), trans-stimulation): 98 ± 4.3% | activity at 5000 µM (PfCRT^3D7 [8]; total [3H]CQ transport, [test solute]i = 5 mM (intracellular), mean ± SEM, SEM, read-out: Uptake of [3H]CQ (% PfCRTDd2 control), trans-stimulation, PfCRT3D7): 3.3 ± 0.02% | activity at 5000 µM (PfCRT^Ecu1110 [9]; pH 5.5, read-out: PfCRT-mediated [3H]CQ transport, trans-stimulation (% PfCRTEcu1110 control), [test solute]i = 5 mM (intracellular), PfCRTEcu1110 oocytes, normalised to oocyte type control): 97 ± 2.1% | activity at 5000 µM (PfCRT^Ecu1110 [9]; pH 5.5, read-out: Uptake of [3H]CQ (% PfCRTEcu1110 control), trans-stimulation, PfCRTEcu1110 oocytes, [test solute]i = 5 mM, total [3H]CQ transport, normalised to the oocyte type control): 99 ± 3.5% | activity at 45000 µM (PfCRT^Ecu1110 [9]; pH 5.5, read-out: Uptake of [3H]CQ (% PfCRTEcu1110 control), trans-stimulation, PfCRTEcu1110 oocytes, [test solute]i = 45 mM (30 mM for some solutes due to solubility), total [3H]CQ transport, normalised to the oocyte type control): 99 ± 3.2% | activity at 5000 µM (PfCRT^Ecu1110 [9]; read-out: Uptake of [3H]CQ (% PfCRTDd2 control), trans-stimulation, PfCRTEcu1110, total [3H]CQ transport, [test solute]i = 5 mM (intracellular), mean ± SEM, SEM): 35 ± 1.5% | activity at 45000 µM (PfCRT^Ecu1110 [9]; read-out: Uptake of [3H]CQ (% PfCRTDd2 control), trans-stimulation, PfCRTEcu1110, total [3H]CQ transport, [test solute]i = 45 mM (intracellular; 30 mM for some solutes due to solubility), mean ± SEM, SEM): 35 ± 1.1% | activity at 5000 µM (PfCRT^Dd2 [10]; pH 5.5, read-out: PfCRT-mediated [3H]CQ transport, trans-stimulation (% PfCRTDd2 control), [test solute]i = 5 mM (intracellular), PfCRTDd2 oocytes, normalised to oocyte type control): 94 ± 5.1% | activity at 5000 µM (PfCRT^Dd2 [10]; pH 5.5, read-out: Uptake of [3H]CQ (% PfCRTDd2 control), trans-stimulation, PfCRTDd2, total [3H]CQ transport, [test solute]i = 5 mM (intracellular), mean ± SEM, SEM): 96 ± 4.4% | activity at 5000 µM (PfCRT^Dd2 [10]; pH 5.5, read-out: Uptake of [3H]CQ (% PfCRTDd2 control), trans-stimulation, PfCRTDd2 oocytes, [test solute]i = 5 mM, total [3H]CQ transport, normalised to the oocyte type control): 96 ± 4.4% | activity at 45000 µM (PfCRT^Dd2 [10]; pH 5.5, read-out: Uptake of [3H]CQ (% PfCRTDd2 control), trans-stimulation, PfCRTDd2 oocytes, total [3H]CQ transport, normalised to the oocyte type control): 100 ± 2.2% | activity at 5000 µM (PfCRT^Dd2 [10]; pH 5.5, read-out: [3H]CQ transport (% PfCRTDd2 control), trans-stimulation, PfCRTDd2, trans-stimulation, [test solute]i = 5 mM (injected), PfCRT-mediated component (background subtracted), mean ± SEM, SEM): 94 ± 5.1% | activity at 45000 µM (PfCRT^Dd2 [10]; pH 5.5, read-out: [3H]CQ transport (% PfCRTDd2 control), trans-stimulation, PfCRTDd2, trans-stimulation, PfCRT-mediated component (background subtracted), mean ± SEM, SEM): 98 ± 3.6% | activity at 5000 µM (PfNT1; PfNT1 oocytes, [test solute]i = 5 mM, normalised to the oocyte type control, read-out: Uptake of [3H]CQ (% PfNT1 control), trans-stimulation): 98 ± 2.2% | activity at 45000 µM (PfNT1; SEM, read-out: Uptake of [3H]CQ (% PfCRTDd2 control), trans-stimulation, PfNT1): 2.2 ± 0.03% | activity at 45000 µM (PfNT1; read-out: Uptake of [3H]CQ (% PfNT1 control), trans-stimulation): 100 ± 2.5% | activity at 5000 µM (PfNT1; [test solute]i = 5 mM (intracellular), mean ± SEM, SEM, read-out: Uptake of [3H]CQ (% PfCRTDd2 control), trans-stimulation, PfNT1): 3.1 ± 0.02%
